Laboratory results reported in patent US10253185B2, “Fluorogenic pH-sensitive dyes and their methods of use (II)” (LIFE TECHNOLOGIES CORPORATION, priority 2012, dated 2019).

How the values were obtained:
cells = assay: Intracellular pH response of dye-loaded cells under perfusion with pH standards (nigericin/valinomycin); type: cell-based; details: 5 μM loading; potassium LCIS pH standards 7.4, 7.2, 6.5, 6.0; nigericin and valinomycin 10 μM each
Procedure: 10 mL loading buffer, Compound (4): 10 μL Compound (4) from a 5 mM DMSO stock was added to 100 μL Powerload and mixed. 10 mL LCIS was added to this solution for final concentration of Compound (4) of 5 μM.
Cells were cultured on 35 mm MatTek glass bottom dishes. For loading, cells were rinsed 1× with LCIS and replaced with loading buffer described above. Cells were incubated at 37° C. for 60 minutes, then rinsed 2× with LCIS and imaged with standard TRITC or FITC filter sets. (see FIG. 5).
Cells were cultured and loaded as described above with Compound (4). This solution was removed from the cells and replaced with potassium LCIS pH 7.4 standard and imaging experiments begun with cells under constant perfusion by potassium LCIS pH standards of pH 7.4, 7.2, 6.5, and 6.0. […] (Nigericin and valinomycin added at 10 μM each from DMSO stock.) Images of Compound (4) AM loaded cells at pH 7.4 and 6.0 are shown in FIG. 6. Functional kinetic responses from individually selected cells in the sample are shown in FIG. 7 as the pH was changed from 7.4 to 6.0 and back.

[1] = tested on: J774.2 murine macrophages; assay: No-wash phagocytosis assay with E. coli bioparticles conjugated to pH-sensitive dye; type: cell-based; details: E. coli bioparticle-dye conjugates, J774.2 macrophages
Source text: Certain embodiments provide a no-wash, no-quench assay for phagocytosis that is based on fluorogenic bioparticles comprising the pH-sensitive fluorescent dye compounds provided herein. Current protocols for measuring phagocytosis that use fluorescent bioparticles, require a trypan blue quenching step and several washing steps. These steps can introduce significant variability in the assay. To address this issue, provided herein is a no-wash phagocytosis kit, using E. coli bioparticles conjugated to a pH-sensitive fluorescent dye as described herein. These bioparticle conjugates are weakly fluorescent at extracellular pH. […] The pH-sensitive fluorescent bioparticles described herein may be used in plate based, as well as imaging and flow cytometry assays of phagocytosis.

Compound | signal from the dye inside of the cells as external pH changed (cells) | uptake of the bioparticles (phagocytosis) [1]
CCN(CCCC(=O)NCCCCC(C(=O)OCOC(C)=O)N(CC(=O)OCOC(C)=O)CC(=O)OCOC(C)=O)c1cc(OC)c(-c2c3ccc(=[N+](C)C)cc-3oc3cc(N(C)C)ccc23)cc1N(C)C (centres unmarked) [Compound (4), N-(9-(4-((8-(2-(acetoxymethoxy)-2-oxoethyl)-9-((acetoxymethoxy)carbonyl)-2,6,15-trioxo-3,5-dioxa-8,14-diazaoctadecan-18-yl)(ethyl)amino)-5-(dimethylamino)-2-methoxyphenyl)-6-(dimethylamino)-3H-xanthen-3-ylidene)-N-methylmethanaminium] | the signal from the dye inside of the cells changed | –
cytochalaisin D | – | potently inhibited
